Experimental data from patent US10479786B2, “Protein kinase inhibitors” (Princeton Drug Discovery Inc, priority 2016, dated 2019).

Key:
FGFR1 = target: T1, FGFR1 (Homo sapiens, UniProt P11362); test: Off-chip Mobility Shift Assay, kinase inhibition; format: biochemical; settings: at 10 nM; recombinant FGFR1
T1 construct: purchased Carna Biosciences, Inc

MAP2K2 = target: T2, MAP2K2 (Homo sapiens, UniProt P36507); test: Off-chip Mobility Shift Assay, kinase inhibition; format: biochemical; settings: at 10 nM; recombinant MAP2K2
T2 construct: purchased Carna Biosciences, Inc

Erk1 = target: T3, Erk1 (Homo sapiens, UniProt P27361); test: Off-chip Mobility Shift Assay, kinase inhibition; format: biochemical; settings: at 10 nM; recombinant Erk1
T3 construct: purchased Carna Biosciences, Inc

BRAF(V600E) = target: T4, BRAF(V600E) (Homo sapiens, UniProt P15056, V600E); test: Off-chip Mobility Shift Assay, kinase inhibition; format: biochemical; settings: at 10 nM; recombinant BRAF(V600E)
T4 construct: purchased Carna Biosciences, Inc

FYN(isoform b) = target: T5, FYN(isoform b) (Homo sapiens, UniProt P06241); test: Off-chip Mobility Shift Assay, kinase inhibition; format: biochemical; settings: recombinant FYN(isoform b)
T5 construct: purchased Carna Biosciences, Inc

SRM = target: T6, SRM (Homo sapiens, UniProt Q9H3Y6); test: Off-chip Mobility Shift Assay, kinase inhibition; format: biochemical; settings: at 10 nM; recombinant SRM
T6 construct: purchased Carna Biosciences, Inc

KIT(D816V) = target: T7, KIT(D816V) (Homo sapiens, UniProt P10721, D816V); test: Off-chip Mobility Shift Assay, kinase inhibition; format: biochemical; settings: at 10 nM; recombinant KIT(D816V)
T7 construct: purchased Carna Biosciences, Inc

BRK = target: T8, BRK (Homo sapiens, UniProt Q13882); test: Off-chip Mobility Shift Assay, kinase inhibition; format: biochemical; settings: at 10 nM; recombinant BRK
T8 construct: purchased Carna Biosciences, Inc

ROCK1 = target: T9, ROCK1 (Homo sapiens, UniProt Q13464); test: Off-chip Mobility Shift Assay, kinase inhibition; format: biochemical; settings: at 10 nM; recombinant ROCK1
T9 construct: purchased Carna Biosciences, Inc

EGFR = target: T10, EGFR (Homo sapiens, UniProt P00533); test: Off-chip Mobility Shift Assay, kinase inhibition; format: biochemical; settings: recombinant EGFR; for inhibition at 0.01 µM: at 10 nM
T10 construct: purchased Carna Biosciences, Inc

BRAF = target: T11, BRAF (Homo sapiens, UniProt P15056); test: Off-chip Mobility Shift Assay, kinase inhibition; format: biochemical; settings: recombinant BRAF; for inhibition at 0.01 µM: at 10 nM
T11 construct: purchased Carna Biosciences, Inc

p38β = target: T12, p38β (Homo sapiens, UniProt Q15759); test: Off-chip Mobility Shift Assay, kinase inhibition; format: biochemical; settings: recombinant p38β; for inhibition at 0.01 µM: at 10 nM
T12 construct: purchased Carna Biosciences, Inc

p38α = target: T13, p38α (Homo sapiens, UniProt Q16539); test: Off-chip Mobility Shift Assay, kinase inhibition; format: biochemical; settings: recombinant p38α; for inhibition at 0.01 µM: at 10 nM
T13 construct: purchased Carna Biosciences, Inc

MST1 = target: T14, MST1 (Homo sapiens, UniProt Q13043); test: Off-chip Mobility Shift Assay, kinase inhibition; format: biochemical; settings: at 10 nM; recombinant MST1
T14 construct: purchased Carna Biosciences, Inc

RET(S891A) = target: T15, RET(S891A) (Homo sapiens, UniProt P07949, S891A); test: Off-chip Mobility Shift Assay, kinase inhibition; format: biochemical; settings: at 10 nM; recombinant RET(S891A)
T15 construct: purchased Carna Biosciences, Inc

KIT = target: T16, KIT (Homo sapiens, UniProt P10721); test: Off-chip Mobility Shift Assay, kinase inhibition; format: biochemical; settings: recombinant KIT; for inhibition at 0.01 µM: at 10 nM
T16 construct: purchased Carna Biosciences, Inc

FGFR3 = target: T17, FGFR3 (Homo sapiens, UniProt P22607); test: Off-chip Mobility Shift Assay, kinase inhibition; format: biochemical; settings: at 10 nM; recombinant FGFR3
T17 construct: purchased Carna Biosciences, Inc

YES(T348I) = target: T18, YES(T348I) (Homo sapiens, UniProt P07947, T348I); test: Off-chip Mobility Shift Assay, kinase inhibition; format: biochemical; settings: recombinant YES(T348I)
T18 construct: purchased Carna Biosciences, Inc

MNK1 = target: T19, MNK1 (Homo sapiens, UniProt Q9BUB5); test: Off-chip Mobility Shift Assay, kinase inhibition; format: biochemical; settings: at 10 nM; recombinant MNK1
T19 construct: purchased Carna Biosciences, Inc

MAP2K1 = target: T20, MAP2K1 (Homo sapiens, UniProt Q02750); test: Off-chip Mobility Shift Assay, kinase inhibition; format: biochemical; settings: at 10 nM; recombinant MAP2K1
T20 construct: purchased Carna Biosciences, Inc

RAF1 = target: T21, RAF1 (Homo sapiens, UniProt P04049, Y340D/Y341D); test: Off-chip Mobility Shift Assay, kinase inhibition; format: biochemical; settings: recombinant RAF1; for inhibition at 0.01 µM: at 10 nM
T21 construct: purchased Carna Biosciences, Inc

KDR = target: T22, KDR (Homo sapiens, UniProt P35968); test: Off-chip Mobility Shift Assay, kinase inhibition; format: biochemical; settings: at 10 nM; recombinant KDR
T22 construct: purchased Carna Biosciences, Inc

FLT1 = target: T23, FLT1 (Homo sapiens, UniProt P17948); test: Off-chip Mobility Shift Assay, kinase inhibition; format: biochemical; settings: at 10 nM; recombinant FLT1
T23 construct: purchased Carna Biosciences, Inc

HER2 = target: T24, HER2 (Homo sapiens, UniProt P04626); test: Off-chip Mobility Shift Assay, kinase inhibition; format: biochemical; settings: recombinant HER2; for inhibition at 0.01 µM: at 10 nM
T24 construct: purchased Carna Biosciences, Inc

KIT(V560G) = target: T25, KIT(V560G) (Homo sapiens, UniProt P10721, V560G); test: Off-chip Mobility Shift Assay, kinase inhibition; format: biochemical; settings: recombinant KIT(V560G); for inhibition at 0.01 µM: at 10 nM
T25 construct: purchased Carna Biosciences, Inc

[1] = Lung tissue and plasma concentration ratios in mice; format: in vivo, CD-1 mouse; settings: single oral dose 5 mg/kg, 2-in-1 with dasatinib, all time points tested
Protocol: CD-1 mouse (approximate weight 30 g, N=3) were dosed by oral gavage at 10 mL/kg. Blood samples were collected into tubes containing EDTA as the anticoagulant at 1, 2, 4, 10 h post-dosing for Compound X, and predose, 1, 2, 3, 8, 10 and 24 h post-dosing for Compound XI. The plasma samples were prepared by centrifugation. Lung samples were also collected at each of the above time points. The lung samples were homogenated in 4× distilled water (v/w). The plasma samples and the homogenated lung tissue samples were mixed with 3× volumes of acetonitrile containing 100 nM reserpine as the internal standard, and centrifuged at 4000 RPM for 15 min. The supernatants were injected for LC/MS analysis which were carried out on a AB Sciex 4000 Q Trap LC/MS/MS system coupled with Shimadzu Prominence UFLCXR 20 series (including a CBM-20A controller, two LC-20ADXR solvent delivery units, SIL-20AC HT autosampler, CTO-20A column oven, and a SPD-20A UV detector). The samples were separated on a Phenomenex Columbus column (C18, 4 μm, 50×2 mm) eluted with two solvent systems: 2 mM ammonium acetate in water containing 0.1% formic acid (A) and methanol (B) at a linear gradient starting at 25%. Electrospray ionization in positive mode was used to acquire LC/MS/MS data.

ITK = target: T26, ITK (Homo sapiens, UniProt Q08881); test: Off-chip Mobility Shift Assay, kinase inhibition; format: biochemical; settings: at 1 nM; recombinant ITK
T26 construct: purchased Carna Biosciences, Inc

T16 sequence (P10721 26-976): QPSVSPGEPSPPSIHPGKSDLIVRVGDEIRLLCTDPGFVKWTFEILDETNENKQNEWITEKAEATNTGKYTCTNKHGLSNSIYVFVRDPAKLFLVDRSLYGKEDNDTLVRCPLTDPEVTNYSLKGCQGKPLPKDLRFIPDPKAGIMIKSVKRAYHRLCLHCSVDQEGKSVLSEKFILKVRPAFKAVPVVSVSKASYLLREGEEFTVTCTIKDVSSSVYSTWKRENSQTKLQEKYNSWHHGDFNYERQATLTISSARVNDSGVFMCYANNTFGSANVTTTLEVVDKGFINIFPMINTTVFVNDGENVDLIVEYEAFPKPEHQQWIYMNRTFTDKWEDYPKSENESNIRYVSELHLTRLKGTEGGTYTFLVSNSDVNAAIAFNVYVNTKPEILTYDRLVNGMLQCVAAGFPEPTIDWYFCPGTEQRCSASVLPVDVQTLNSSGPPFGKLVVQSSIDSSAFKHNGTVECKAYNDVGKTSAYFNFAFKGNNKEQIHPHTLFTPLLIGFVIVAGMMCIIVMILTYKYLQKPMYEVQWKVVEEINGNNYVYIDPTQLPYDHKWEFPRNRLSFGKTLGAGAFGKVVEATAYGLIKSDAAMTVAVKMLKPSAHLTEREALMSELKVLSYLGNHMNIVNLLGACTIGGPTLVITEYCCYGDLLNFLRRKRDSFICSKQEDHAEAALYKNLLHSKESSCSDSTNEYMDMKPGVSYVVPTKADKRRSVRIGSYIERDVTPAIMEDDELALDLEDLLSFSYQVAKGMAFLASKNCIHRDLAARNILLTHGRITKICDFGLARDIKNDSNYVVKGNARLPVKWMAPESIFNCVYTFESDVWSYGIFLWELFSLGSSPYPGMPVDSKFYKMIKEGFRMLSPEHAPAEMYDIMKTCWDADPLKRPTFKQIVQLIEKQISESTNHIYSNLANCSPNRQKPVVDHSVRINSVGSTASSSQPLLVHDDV
T10 sequence (P00533 25-1210): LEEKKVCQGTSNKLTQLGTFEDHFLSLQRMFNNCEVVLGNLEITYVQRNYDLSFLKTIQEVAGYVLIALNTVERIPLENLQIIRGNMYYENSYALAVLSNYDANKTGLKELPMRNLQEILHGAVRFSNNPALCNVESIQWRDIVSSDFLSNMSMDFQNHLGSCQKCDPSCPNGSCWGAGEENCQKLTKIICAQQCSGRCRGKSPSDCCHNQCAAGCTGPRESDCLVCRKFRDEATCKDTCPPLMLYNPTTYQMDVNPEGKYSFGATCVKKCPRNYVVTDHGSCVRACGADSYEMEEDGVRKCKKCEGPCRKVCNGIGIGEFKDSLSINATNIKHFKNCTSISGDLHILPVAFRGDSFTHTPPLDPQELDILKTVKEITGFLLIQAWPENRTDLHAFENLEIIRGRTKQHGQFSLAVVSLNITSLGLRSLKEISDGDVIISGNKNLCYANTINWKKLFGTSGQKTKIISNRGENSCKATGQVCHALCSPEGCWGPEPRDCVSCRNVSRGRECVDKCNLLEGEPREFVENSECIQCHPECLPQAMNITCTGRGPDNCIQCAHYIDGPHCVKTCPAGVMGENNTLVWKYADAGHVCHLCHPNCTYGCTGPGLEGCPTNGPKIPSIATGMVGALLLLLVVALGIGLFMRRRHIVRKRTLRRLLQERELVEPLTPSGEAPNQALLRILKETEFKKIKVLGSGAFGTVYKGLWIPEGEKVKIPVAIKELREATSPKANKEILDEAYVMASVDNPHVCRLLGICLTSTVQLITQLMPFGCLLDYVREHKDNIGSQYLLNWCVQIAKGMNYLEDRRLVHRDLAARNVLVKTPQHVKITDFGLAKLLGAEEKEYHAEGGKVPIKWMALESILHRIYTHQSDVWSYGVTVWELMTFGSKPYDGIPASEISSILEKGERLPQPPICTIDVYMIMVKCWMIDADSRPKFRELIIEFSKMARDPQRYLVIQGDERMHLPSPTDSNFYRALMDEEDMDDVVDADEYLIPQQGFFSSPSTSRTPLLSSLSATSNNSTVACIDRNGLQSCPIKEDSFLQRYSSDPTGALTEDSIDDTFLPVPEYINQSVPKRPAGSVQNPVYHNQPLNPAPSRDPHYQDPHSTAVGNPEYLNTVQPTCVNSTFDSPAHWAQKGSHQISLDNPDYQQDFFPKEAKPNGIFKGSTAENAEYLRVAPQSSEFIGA
T21 sequence (P04049 306-648 Y340D/Y341D limits assumed): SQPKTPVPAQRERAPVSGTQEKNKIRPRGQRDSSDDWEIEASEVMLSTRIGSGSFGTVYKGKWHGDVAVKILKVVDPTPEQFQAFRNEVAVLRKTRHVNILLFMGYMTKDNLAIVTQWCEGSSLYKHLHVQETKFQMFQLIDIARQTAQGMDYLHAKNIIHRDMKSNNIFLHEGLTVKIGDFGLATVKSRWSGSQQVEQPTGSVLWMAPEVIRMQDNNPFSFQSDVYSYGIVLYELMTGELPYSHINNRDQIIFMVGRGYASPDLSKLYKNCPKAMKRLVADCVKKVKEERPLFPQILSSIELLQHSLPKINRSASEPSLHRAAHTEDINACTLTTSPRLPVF
T25 sequence (P10721 26-976 V560G): as the sequence (P10721 26-976) above, with V535G counted along it
T12 sequence (Q15759 whole entry): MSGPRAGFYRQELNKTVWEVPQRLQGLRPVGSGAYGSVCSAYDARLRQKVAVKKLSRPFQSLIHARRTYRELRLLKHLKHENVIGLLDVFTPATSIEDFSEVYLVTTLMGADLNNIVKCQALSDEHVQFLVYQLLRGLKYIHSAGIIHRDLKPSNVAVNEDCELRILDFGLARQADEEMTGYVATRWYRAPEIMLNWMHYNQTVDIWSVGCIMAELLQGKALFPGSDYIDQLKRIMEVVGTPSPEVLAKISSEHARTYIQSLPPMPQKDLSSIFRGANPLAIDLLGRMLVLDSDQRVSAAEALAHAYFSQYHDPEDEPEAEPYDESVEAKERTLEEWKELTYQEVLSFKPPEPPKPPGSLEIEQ
T24 sequence (P04626 23-1255): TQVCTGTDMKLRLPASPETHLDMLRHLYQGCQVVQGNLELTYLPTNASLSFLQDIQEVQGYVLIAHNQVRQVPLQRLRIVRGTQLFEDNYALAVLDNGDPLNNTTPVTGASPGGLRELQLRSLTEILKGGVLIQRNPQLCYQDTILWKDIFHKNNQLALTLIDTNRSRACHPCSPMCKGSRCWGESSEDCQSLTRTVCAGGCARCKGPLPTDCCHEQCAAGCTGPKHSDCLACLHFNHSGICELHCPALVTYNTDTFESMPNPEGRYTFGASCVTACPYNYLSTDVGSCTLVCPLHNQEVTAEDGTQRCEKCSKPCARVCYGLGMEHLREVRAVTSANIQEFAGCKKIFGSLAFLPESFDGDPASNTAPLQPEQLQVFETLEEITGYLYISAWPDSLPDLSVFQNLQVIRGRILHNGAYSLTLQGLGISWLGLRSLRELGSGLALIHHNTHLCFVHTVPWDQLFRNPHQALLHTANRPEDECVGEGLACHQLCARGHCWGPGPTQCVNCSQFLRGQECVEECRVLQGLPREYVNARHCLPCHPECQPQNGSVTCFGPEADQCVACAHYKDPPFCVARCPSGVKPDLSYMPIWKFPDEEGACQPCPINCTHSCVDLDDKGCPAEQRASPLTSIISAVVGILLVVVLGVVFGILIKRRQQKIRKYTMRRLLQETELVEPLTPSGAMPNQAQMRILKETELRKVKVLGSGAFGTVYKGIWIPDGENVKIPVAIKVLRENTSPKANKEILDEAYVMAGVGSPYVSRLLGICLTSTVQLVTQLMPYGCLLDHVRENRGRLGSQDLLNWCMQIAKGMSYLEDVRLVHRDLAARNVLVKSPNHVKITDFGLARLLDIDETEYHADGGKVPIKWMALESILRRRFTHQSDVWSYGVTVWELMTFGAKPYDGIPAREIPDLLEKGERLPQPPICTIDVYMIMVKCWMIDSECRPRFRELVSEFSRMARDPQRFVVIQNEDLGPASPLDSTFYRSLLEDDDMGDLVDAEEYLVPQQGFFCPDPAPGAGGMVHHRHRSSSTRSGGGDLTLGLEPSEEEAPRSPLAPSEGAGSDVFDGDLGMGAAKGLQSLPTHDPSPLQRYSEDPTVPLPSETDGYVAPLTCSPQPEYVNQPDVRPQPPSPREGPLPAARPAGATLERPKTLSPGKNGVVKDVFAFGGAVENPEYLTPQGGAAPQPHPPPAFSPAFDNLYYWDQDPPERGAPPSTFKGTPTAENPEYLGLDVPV
T13 sequence (Q16539 whole entry): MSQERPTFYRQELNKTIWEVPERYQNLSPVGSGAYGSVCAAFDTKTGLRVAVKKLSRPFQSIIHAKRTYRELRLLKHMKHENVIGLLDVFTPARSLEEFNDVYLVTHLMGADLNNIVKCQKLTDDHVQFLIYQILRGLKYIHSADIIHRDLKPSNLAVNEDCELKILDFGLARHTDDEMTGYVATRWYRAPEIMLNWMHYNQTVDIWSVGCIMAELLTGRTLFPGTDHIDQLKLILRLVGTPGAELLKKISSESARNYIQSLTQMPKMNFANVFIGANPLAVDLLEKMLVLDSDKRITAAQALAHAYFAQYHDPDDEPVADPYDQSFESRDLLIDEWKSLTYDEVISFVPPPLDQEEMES
T5 sequence (P06241 1-534 isoform P06241-2): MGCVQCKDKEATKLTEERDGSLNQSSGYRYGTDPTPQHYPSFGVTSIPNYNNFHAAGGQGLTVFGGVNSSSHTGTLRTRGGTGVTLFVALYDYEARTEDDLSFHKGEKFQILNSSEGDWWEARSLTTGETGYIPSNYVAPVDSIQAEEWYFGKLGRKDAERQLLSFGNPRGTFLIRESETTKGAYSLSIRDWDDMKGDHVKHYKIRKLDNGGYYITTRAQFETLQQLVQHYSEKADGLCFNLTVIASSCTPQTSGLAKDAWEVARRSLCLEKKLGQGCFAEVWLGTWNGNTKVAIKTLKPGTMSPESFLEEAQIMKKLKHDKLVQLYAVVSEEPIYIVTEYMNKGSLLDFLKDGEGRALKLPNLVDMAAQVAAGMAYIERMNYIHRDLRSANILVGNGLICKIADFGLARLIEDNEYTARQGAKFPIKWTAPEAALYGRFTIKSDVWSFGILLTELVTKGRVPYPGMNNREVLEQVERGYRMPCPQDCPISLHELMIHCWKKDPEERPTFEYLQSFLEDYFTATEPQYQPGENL
T7 sequence (P10721 26-976 D816V): as the sequence (P10721 26-976) above, with D791V counted along it

[2H]c1cc(C)c(NC(=O)c2cnc(Nc3cc(N4CCCCC4)nc(C)n3)s2)c(Cl)c1 [Compound I, N-(2-chloro-4-deuterio-6-methyl-phenyl)-2-[[2-methyl-6-(1-piperidyl)pyrimidin-4-yl]amino]thiazole-5-carboxamide]
inhibition at 0.01 µM (FGFR1): < 50%
inhibition at 0.01 µM (MAP2K2): < 50%
inhibition at 0.01 µM (Erk1): < 50%
inhibition at 0.01 µM (BRAF(V600E)): < 50%
inhibition at 0.01 µM (FYN(isoform b); at 10 nM): > 50%
inhibition at 0.01 µM (SRM): > 50%
inhibition at 0.01 µM (KIT(D816V)): > 50%
inhibition at 0.01 µM (BRK): > 50%
inhibition at 0.01 µM (ROCK1): < 50%
inhibition at 0.01 µM (EGFR): < 50%
inhibition at 0.01 µM (BRAF): < 50%
inhibition at 0.01 µM (p38β): < 50%
inhibition at 0.01 µM (p38α): < 50%
inhibition at 0.01 µM (MST1): < 50%
inhibition at 0.01 µM (RET(S891A)): < 50%
inhibition at 0.01 µM (KIT): < 50%
inhibition at 0.01 µM (FGFR3): < 50%
inhibition at 0.01 µM (YES(T348I); at 10 nM): < 50%
inhibition at 0.01 µM (MNK1): < 50%
inhibition at 0.01 µM (MAP2K1): < 50%
inhibition at 0.01 µM (RAF1): < 50%
inhibition at 0.01 µM (KDR): < 50%
inhibition at 0.01 µM (FLT1): < 50%
inhibition at 0.01 µM (HER2): < 50%
inhibition at 0.01 µM (KIT(V560G)): < 50%

Cc1nc(Nc2ncc(C(=O)Nc3c(C)cccc3Cl)s2)cc(N2CC[C@H](O)C2)n1 [Compound X, N-(2-chloro-6-methylphenyl)-2-[[2-methyl-6-((S)-3-hydroxypyrrolidin-1-yl)pyrimidin-4-yl]amino]thiazole-5-carboxamide]
ratio of lung tissue concentration to plasma concentration, compared to dasatinib [1]: significantly lower ratios

Cc1nc(Nc2ncc(C(=O)Nc3c(C)cccc3Cl)s2)cc(N2CC[C@@H](O)C2)n1 [Compound XI, N-(2-chloro-6-methylphenyl)-2-[[2-methyl-6-((R)-3-hydroxypyrrolidin-1-yl)pyrimidin-4-yl]amino]thiazole-5-carboxamide]
ratio of lung tissue concentration to plasma concentration, compared to dasatinib [1]: significantly lower ratios

[2H]c1cc(C)c(NC(=O)c2cnc(Nc3cc(N4CCC(O)CC4)nc(C)n3)s2)c(Cl)c1 [Compound II, N-(2-chloro-4-deuterio-6-methyl-phenyl)-2-[[6-(4-hydroxy-1-piperidyl)-2-methyl-pyrimidin-4-yl]amino]thiazole-5-carboxamide]
inhibition at 0.001 µM (FYN(isoform b); at 1 nM): > 50%
inhibition at 0.001 µM (EGFR; at 1 nM): < 50%
inhibition at 0.01 µM (EGFR): < 50%
inhibition at 0.1 µM (EGFR; at 100 nM): > 50%
inhibition at 0.001 µM (BRAF; at 1 nM): < 50%
inhibition at 0.01 µM (BRAF): < 50%
inhibition at 0.1 µM (BRAF; at 100 nM): < 50%
inhibition at 0.001 µM (p38β; at 1 nM): < 50%
inhibition at 0.01 µM (p38β): < 50%
inhibition at 0.1 µM (p38β; at 100 nM): < 50%
inhibition at 0.001 µM (p38α; at 1 nM): < 50%
inhibition at 0.01 µM (p38α): < 50%
inhibition at 0.1 µM (p38α; at 100 nM): < 50%
inhibition at 0.001 µM (KIT; at 1 nM): < 50%
inhibition at 0.01 µM (KIT): > 50%
inhibition at 0.1 µM (KIT; at 100 nM): > 50%
inhibition at 0.001 µM (YES(T348I); at 1 nM): < 50%
inhibition at 0.001 µM (RAF1; at 1 nM): < 50%
inhibition at 0.01 µM (RAF1): < 50%
inhibition at 0.1 µM (RAF1; at 100 nM): < 50%
inhibition at 0.001 µM (ITK): < 50%
inhibition at 0.001 µM (HER2; at 1 nM): < 50%
inhibition at 0.01 µM (HER2): < 50%
inhibition at 0.1 µM (HER2; at 100 nM): < 50%
inhibition at 0.001 µM (KIT(V560G); at 1 nM): < 50%
inhibition at 0.01 µM (KIT(V560G)): > 50%
inhibition at 0.1 µM (KIT(V560G); at 100 nM): > 50%
